Patent US9205073B2, “Method for treating virus infection using derivative of aniline” (CHINA MEDICAL UNIVERSITY, priority 2014, dated 2015)

melting point [°C] | SMILES
210 to 211 | CCOC(=O)C1=C(Nc2cccc(O)c2)OCC1=O
159.5 | CCOC(=O)C1=C(Nc2cccc(Cl)c2)OCC1=O
145.6 | CCOC(=O)C1=C(Nc2cc(OC)cc(OC)c2)OCC1=O
115 to 116 | CCOC(=O)C1=C(Nc2ccccc2)OCC1=O
